This passage reports Kd, Km and kcat results from doi:10.1101/2024.03.05.583521v1 (biorxiv, 2024).

The target of data set [1] is T1, PIB-1 (Pseudomonas aeruginosa, UniProt Q9HT32).
T1 sequence (Q9HT32 28-414): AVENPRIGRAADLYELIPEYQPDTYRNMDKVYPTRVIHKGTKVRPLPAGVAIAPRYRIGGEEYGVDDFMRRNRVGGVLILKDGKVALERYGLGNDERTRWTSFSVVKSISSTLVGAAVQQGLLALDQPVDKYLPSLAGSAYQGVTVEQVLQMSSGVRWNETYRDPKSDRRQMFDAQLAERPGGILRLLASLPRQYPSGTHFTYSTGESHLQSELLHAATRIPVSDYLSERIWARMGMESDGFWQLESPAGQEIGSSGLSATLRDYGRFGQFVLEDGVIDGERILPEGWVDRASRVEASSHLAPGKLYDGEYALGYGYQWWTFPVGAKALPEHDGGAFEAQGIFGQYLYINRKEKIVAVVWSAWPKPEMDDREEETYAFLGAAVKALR
The data set can be described thus: isothermal titration calorimetry. It is filed as binding. (In general: Isothermal titration calorimetry measures the heat released or taken up as one component is titrated into another.)

For data set [2], the target named is T1, PIB-1. The data set can be described thus: intrinsic protein fluorescence quenching. It is filed as binding.
Substrate in the data set “purified protein”: O=C(Cc1cccs1)N[C@@H]1C(=O)N2C(C(=O)O)=C(/C=C/c3ccc([N+](=O)[O-])cc3[N+](=O)[O-])CS[C@H]12
As to the kind of experiment: purified protein. The note with it: no added metal, 10 mM Na-HEPES pH 7.5, 100 mM NaCl, 37 °C.

In general, Kd refers to the concentration at which binding is half-saturated. Low readings indicate higher affinity, high ones lower affinity. `C[C@@H](O)[C@H]1C(=O)N2C(C(=O)O)=C(SCCN=CN)C[C@H]12` [imipenem]: the Kd on PIB-1 [1] stood at 79.8 ± 5.9 µM. Molecule `C[C@@H](O)[C@H]1C(=O)N2C(C(=O)O)=C(S[C@@H]3CN[C@H](C(=O)N(C)C)C3)[C@H](C)[C@H]12` [meropenem] showed an equilibrium dissociation constant (Kd) at PIB-1 [2] of 74.8 ± 10.3 µM.

B1: PIB-1 (Pseudomonas aeruginosa PAO1) (protein)
chain: T1 sequence (Q9HT32 28-414)
Broadly, the Km is the substrate concentration at which the rate is half of its maximum. In general, kcat refers to the number of substrate molecules converted per active site and unit of time at saturation. Take B1: in “purified protein”, the Km came to 95.3 ± 8.9 µM and the catalytic constant (kcat) amounted to 0.0041 ± 0.0005 s⁻¹.
